13 molecules from the NIST ThermoML archive (doi:10.1016/j.jct.2016.12.036) can be followed below.

The conditions of data set [1]: 298.15 K, 81.5 kPa, Liquid; for viscosity: Capillary tube (Ostwald / Ubbelohde) method; for mass density: Vibrating tube method.
A short description of data set [2]: refractive index (Na D-line) (dimensionless). Particulars: 298.15 K; 81.5 kPa; Liquid; Standard Abbe refractometry.
The nature of data set [3]: excess molar enthalpy (molar enthalpy of mixing); xn = mol fraction of the nth substance listed. The note with it: 298 K, 81.5 kPa, Liquid, Isoperibol calorimetry.

Numbers after ± are expanded uncertainties.

As usually defined, the viscosity is the internal friction of a fluid under shear. The mass density is the mass of a sample divided by its volume. As usually defined, the refractive index is the speed of light in vacuum divided by its phase velocity in the sample. Turning to `CCCCO` [butan-1-ol], in data set [1], the viscosity came out at 2.572 ± 0.055 mPa·s and the mass density stood at 806 ± 1 kg/m3. In addition, in data set [2], the refractive index came out at 1.3967 ± 0.001.

With `CCC(C)O` (stereo not given) [butan-2-ol], in data set [1], the viscosity was 3.05 ± 0.067 mPa·s and the mass density is listed as 802.5 ± 1 kg/m3. The refractive index in data set [2] came to 1.3945 ± 0.0011.

On to `NCCN` [ethane-1,2-diamine], for which, in data set [1], the viscosity came to 1.385 ± 0.029 mPa·s and the mass density is 892.8 ± 1 kg/m3. The refractive index in data set [2] came out at 1.4537 ± 0.0011.

Take `NCCN` [ethane-1,2-diamine] + CC(C)O: the excess molar enthalpy in data set [3] (x1 = 0.1001) was -0.209 ± 0.00263 kcal/mol; in data set [3] (x1 = 0.2) it was -0.372 ± 0.00478 kcal/mol; in data set [3] (x1 = 0.3007) it was -0.462 ± 0.00574 kcal/mol; in data set [3] (x1 = 0.4033), -0.478 ± 0.00598 kcal/mol; in data set [3] (x1 = 0.5073) it was -0.435 ± 0.0055 kcal/mol; in data set [3] (x1 = 0.5963), -0.363 ± 0.00454 kcal/mol. For the same molecule, the excess molar enthalpy in data set [3] (x1 = 0.6988) was -0.275 ± 0.00359 kcal/mol; in data set [3] (x1 = 0.7998), -0.179 ± 0.00232 kcal/mol; in data set [3] (x1 = 0.8998), -0.0844 ± 0.0012 kcal/mol.

As for `NCCN` [ethane-1,2-diamine] + CCC(C)O, the excess molar enthalpy is -0.204 ± 0.00263 kcal/mol in data set [3] (x1 = 0.0999); -0.369 ± 0.00454 kcal/mol in data set [3] (x1 = 0.1999); -0.461 ± 0.00574 kcal/mol in data set [3] (x1 = 0.3009); -0.473 ± 0.00598 kcal/mol in data set [3] (x1 = 0.4025); -0.424 ± 0.00526 kcal/mol in data set [3] (x1 = 0.5055); -0.338 ± 0.0043 kcal/mol in data set [3] (x1 = 0.6098). The results for the excess molar enthalpy in data set [3] (x1 = 0.6982), in data set [3] (x1 = 0.7999) and in data set [3] (x1 = 0.9) were -0.237 ± 0.00311 kcal/mol, -0.143 ± 0.00189 kcal/mol and -0.0601 ± 0.000908 kcal/mol, respectively.

With `NCCN` [ethane-1,2-diamine] + CCCCO, the excess molar enthalpy in data set [3] (x1 = 0.1003) is -0.275 ± 0.00359 kcal/mol; in data set [3] (x1 = 0.2002), -0.486 ± 0.00598 kcal/mol; in data set [3] (x1 = 0.3011), -0.594 ± 0.00741 kcal/mol; in data set [3] (x1 = 0.4024), -0.6 ± 0.00741 kcal/mol; in data set [3] (x1 = 0.5053) it was -0.535 ± 0.00669 kcal/mol; in data set [3] (x1 = 0.6097), -0.428 ± 0.00526 kcal/mol. In addition, the excess molar enthalpy in data set [3] (x1 = 0.6983) is -0.312 ± 0.00406 kcal/mol; in data set [3] (x1 = 0.8), -0.192 ± 0.00239 kcal/mol; in data set [3] (x1 = 0.8999) it was -0.0853 ± 0.00122 kcal/mol.

For the molecule `NCCN` [ethane-1,2-diamine] + CCCO, the excess molar enthalpy in data set [3] (x1 = 0.1) was -0.307 ± 0.00406 kcal/mol; in data set [3] (x1 = 0.199), -0.529 ± 0.00669 kcal/mol; in data set [3] (x1 = 0.3043), -0.65 ± 0.00813 kcal/mol; in data set [3] (x1 = 0.4066), -0.66 ± 0.00813 kcal/mol; in data set [3] (x1 = 0.5106), -0.594 ± 0.00741 kcal/mol; in data set [3] (x1 = 0.5944) it was -0.507 ± 0.00621 kcal/mol. The results for the excess molar enthalpy in data set [3] (x1 = 0.697), in data set [3] (x1 = 0.7983) and in data set [3] (x1 = 0.8996) were -0.387 ± 0.00478 kcal/mol, -0.254 ± 0.00335 kcal/mol and -0.121 ± 0.00167 kcal/mol, respectively.

With `NCCN` [ethane-1,2-diamine] + CCO, the excess molar enthalpy in data set [3] (x1 = 0.1003) is -0.354 ± 0.00454 kcal/mol; in data set [3] (x1 = 0.201) it was -0.6 ± 0.00741 kcal/mol; in data set [3] (x1 = 0.301), -0.72 ± 0.00884 kcal/mol; in data set [3] (x1 = 0.4042), -0.735 ± 0.00908 kcal/mol; in data set [3] (x1 = 0.4958), -0.688 ± 0.0086 kcal/mol; in data set [3] (x1 = 0.5987), -0.584 ± 0.00717 kcal/mol. The figures for the excess molar enthalpy in data set [3] (x1 = 0.7006), in data set [3] (x1 = 0.8007) and in data set [3] (x1 = 0.8987) were -0.452 ± 0.00574 kcal/mol, -0.305 ± 0.00382 kcal/mol and -0.153 ± 0.00208 kcal/mol, respectively.

As for `NCCN` [ethane-1,2-diamine] + CO, the excess molar enthalpy in data set [3] (x1 = 0.0995) was -0.486 ± 0.00621 kcal/mol; in data set [3] (x1 = 0.1972), -0.831 ± 0.0103 kcal/mol; in data set [3] (x1 = 0.295), -1.01 ± 0.0124 kcal/mol; in data set [3] (x1 = 0.3909), -1.05 ± 0.0129 kcal/mol; in data set [3] (x1 = 0.4934), -0.976 ± 0.012 kcal/mol; in data set [3] (x1 = 0.5948) it was -0.834 ± 0.0103 kcal/mol. The excess molar enthalpy in data set [3] (x1 = 0.6953) is -0.655 ± 0.00813 kcal/mol; in data set [3] (x1 = 0.7971), -0.449 ± 0.00574 kcal/mol; in data set [3] (x1 = 0.8994), -0.225 ± 0.00311 kcal/mol.

As for `CCO` [ethanol], in data set [1], the viscosity came out at 1.093 ± 0.023 mPa·s and the mass density came to 785.2 ± 1 kg/m3. The refractive index in data set [2] is listed as 1.3588 ± 0.001.

With `CO` [methanol], in data set [1], the viscosity was found to be 0.573 ± 0.012 mPa·s and the mass density turned out to be 786.7 ± 1 kg/m3. Also, the refractive index in data set [2] is 1.3263 ± 0.0011.

On to `CCCO` [propan-1-ol], for which, in data set [1], the viscosity is given as 1.943 ± 0.041 mPa·s and the mass density is reported as 799.5 ± 1 kg/m3. Moreover, the refractive index in data set [2] is reported as 1.3825 ± 0.001.

On to `CC(C)O` [propan-2-ol], for which, in data set [1], the viscosity was 2.067 ± 0.044 mPa·s and the mass density is given as 781 ± 1 kg/m3. In addition, in data set [2], the refractive index turned out to be 1.3745 ± 0.0011.
